{"source": "paper PMC4176091", "about": "“Novel expression of Haemonchus contortus vaccine candidate aminopeptidase H11 using the free-living nematode Caenorhabditis elegans” (Veterinary Research, 2013)", "assay_in_all_cases": "aminopeptidase assay, absorbance at […] nm", "assay_type_in_all_cases": "biochemical", "conditions_in_all_cases": "0.5 mM substrate; 50 mM NaPO4, pH 5.5 and 7; 2 h at 37 °C then overnight at room temperature", "key": {"H11 (rH11, isoform H11)": {"target": "T1, H11 (rH11, isoform H11) (Haemonchus contortus, UniProt Q10737)", "T1 construct": "soluble, expressed in C. elegans; N-terminal transmembrane domain (35 aa) replaced by Hmcp-6 signal peptide; C-terminal 10 aa His tag; cobalt resin", "T1 sequence (Q10737 36-972)": "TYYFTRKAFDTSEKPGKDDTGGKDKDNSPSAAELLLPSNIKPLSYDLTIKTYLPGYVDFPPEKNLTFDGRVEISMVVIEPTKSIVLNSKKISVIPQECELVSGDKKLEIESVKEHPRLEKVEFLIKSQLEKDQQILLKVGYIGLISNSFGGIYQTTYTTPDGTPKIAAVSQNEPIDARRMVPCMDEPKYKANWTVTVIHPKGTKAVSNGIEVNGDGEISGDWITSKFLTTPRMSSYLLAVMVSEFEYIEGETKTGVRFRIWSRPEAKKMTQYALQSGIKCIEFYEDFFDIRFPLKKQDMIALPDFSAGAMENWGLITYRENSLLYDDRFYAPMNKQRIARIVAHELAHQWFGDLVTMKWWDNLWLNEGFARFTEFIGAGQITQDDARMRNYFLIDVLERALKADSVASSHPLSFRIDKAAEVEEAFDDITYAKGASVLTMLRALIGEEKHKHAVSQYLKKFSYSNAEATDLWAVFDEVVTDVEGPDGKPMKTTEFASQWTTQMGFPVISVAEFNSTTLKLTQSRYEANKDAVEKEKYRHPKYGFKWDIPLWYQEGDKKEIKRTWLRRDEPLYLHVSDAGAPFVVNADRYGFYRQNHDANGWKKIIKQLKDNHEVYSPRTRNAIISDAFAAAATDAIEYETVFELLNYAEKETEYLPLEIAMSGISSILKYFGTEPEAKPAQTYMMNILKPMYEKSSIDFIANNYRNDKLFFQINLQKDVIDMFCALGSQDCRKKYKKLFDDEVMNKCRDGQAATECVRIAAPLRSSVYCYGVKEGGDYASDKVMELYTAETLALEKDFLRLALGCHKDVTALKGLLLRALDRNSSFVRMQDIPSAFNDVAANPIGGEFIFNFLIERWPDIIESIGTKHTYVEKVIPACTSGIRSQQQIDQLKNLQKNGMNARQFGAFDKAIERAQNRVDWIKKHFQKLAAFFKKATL"}, "rH11-1": {"target": "T2, rH11-1 (Haemonchus contortus, UniProt Q9U5P6)", "T2 construct": "gene h11-1; soluble, expressed in C. elegans; N-terminal transmembrane domain (35 aa) replaced by Hmcp-6 signal peptide; C-terminal 10 aa His tag; cobalt resin", "T2 sequence (Q9U5P6 entry or part of it)": "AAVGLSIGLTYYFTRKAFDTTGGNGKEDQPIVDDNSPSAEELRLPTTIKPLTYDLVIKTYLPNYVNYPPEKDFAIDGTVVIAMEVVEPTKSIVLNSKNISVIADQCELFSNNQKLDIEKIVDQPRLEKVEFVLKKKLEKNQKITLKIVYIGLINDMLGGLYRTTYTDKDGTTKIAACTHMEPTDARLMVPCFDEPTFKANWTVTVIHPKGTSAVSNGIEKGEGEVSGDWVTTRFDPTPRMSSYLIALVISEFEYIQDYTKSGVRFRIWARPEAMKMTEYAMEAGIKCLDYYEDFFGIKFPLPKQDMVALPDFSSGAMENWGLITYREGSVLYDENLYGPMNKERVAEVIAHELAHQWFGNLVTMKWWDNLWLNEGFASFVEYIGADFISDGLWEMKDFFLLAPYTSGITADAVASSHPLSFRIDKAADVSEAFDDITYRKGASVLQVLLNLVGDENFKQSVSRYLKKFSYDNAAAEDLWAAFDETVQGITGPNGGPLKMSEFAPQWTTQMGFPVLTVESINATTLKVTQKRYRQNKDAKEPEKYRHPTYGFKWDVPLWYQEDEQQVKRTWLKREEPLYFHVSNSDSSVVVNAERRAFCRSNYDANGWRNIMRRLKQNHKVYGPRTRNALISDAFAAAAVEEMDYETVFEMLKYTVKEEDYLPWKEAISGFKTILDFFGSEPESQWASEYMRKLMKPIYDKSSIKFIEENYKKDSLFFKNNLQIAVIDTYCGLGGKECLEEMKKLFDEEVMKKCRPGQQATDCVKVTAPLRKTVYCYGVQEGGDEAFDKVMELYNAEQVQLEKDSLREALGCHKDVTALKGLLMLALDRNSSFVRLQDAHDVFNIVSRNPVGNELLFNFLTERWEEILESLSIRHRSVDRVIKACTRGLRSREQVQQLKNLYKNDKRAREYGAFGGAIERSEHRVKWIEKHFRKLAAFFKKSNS"}, "rH11-5": {"target": "T3, rH11-5 (Haemonchus contortus, UniProt V5K5H8)", "T3 construct": "soluble, expressed in C. elegans; N-terminal transmembrane domain (35 aa) replaced by Hmcp-6 signal peptide; C-terminal 10 aa His tag; cobalt resin", "T3 sequence (V5K5H8 entry or part of it)": "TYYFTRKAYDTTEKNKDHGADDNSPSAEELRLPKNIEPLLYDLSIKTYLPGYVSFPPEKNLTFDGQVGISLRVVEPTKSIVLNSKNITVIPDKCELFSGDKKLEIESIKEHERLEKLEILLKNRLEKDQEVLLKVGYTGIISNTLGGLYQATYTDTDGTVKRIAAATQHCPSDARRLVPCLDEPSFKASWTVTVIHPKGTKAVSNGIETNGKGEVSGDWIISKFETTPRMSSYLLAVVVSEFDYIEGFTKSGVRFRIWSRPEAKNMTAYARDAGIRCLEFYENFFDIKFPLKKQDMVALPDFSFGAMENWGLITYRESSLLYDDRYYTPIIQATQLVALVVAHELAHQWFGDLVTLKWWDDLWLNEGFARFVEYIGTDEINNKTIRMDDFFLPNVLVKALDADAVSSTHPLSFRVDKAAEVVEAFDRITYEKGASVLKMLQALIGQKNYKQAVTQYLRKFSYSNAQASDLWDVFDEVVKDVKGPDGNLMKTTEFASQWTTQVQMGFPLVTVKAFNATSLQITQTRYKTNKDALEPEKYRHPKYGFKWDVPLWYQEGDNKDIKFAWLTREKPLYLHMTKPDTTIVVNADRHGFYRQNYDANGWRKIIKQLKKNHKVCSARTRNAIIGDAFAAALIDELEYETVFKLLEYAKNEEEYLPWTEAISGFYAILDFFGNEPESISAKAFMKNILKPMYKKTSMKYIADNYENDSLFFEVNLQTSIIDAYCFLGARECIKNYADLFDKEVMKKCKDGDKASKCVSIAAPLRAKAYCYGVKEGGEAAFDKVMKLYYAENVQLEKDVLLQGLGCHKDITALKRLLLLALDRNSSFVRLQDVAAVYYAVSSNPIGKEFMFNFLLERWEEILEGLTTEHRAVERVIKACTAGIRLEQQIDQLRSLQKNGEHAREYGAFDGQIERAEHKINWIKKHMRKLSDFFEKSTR"}, "rH11-4": {"target": "T4, rH11-4 (Haemonchus contortus, UniProt Q967C6)", "T4 construct": "gene h11-4; soluble, expressed in C. elegans; N-terminal transmembrane domain (35 aa) replaced by Hmcp-6 signal peptide; C-terminal 10 aa His tag; N-glycosylated; cobalt resin", "T4 sequence (Q967C6 entry or part of it)": "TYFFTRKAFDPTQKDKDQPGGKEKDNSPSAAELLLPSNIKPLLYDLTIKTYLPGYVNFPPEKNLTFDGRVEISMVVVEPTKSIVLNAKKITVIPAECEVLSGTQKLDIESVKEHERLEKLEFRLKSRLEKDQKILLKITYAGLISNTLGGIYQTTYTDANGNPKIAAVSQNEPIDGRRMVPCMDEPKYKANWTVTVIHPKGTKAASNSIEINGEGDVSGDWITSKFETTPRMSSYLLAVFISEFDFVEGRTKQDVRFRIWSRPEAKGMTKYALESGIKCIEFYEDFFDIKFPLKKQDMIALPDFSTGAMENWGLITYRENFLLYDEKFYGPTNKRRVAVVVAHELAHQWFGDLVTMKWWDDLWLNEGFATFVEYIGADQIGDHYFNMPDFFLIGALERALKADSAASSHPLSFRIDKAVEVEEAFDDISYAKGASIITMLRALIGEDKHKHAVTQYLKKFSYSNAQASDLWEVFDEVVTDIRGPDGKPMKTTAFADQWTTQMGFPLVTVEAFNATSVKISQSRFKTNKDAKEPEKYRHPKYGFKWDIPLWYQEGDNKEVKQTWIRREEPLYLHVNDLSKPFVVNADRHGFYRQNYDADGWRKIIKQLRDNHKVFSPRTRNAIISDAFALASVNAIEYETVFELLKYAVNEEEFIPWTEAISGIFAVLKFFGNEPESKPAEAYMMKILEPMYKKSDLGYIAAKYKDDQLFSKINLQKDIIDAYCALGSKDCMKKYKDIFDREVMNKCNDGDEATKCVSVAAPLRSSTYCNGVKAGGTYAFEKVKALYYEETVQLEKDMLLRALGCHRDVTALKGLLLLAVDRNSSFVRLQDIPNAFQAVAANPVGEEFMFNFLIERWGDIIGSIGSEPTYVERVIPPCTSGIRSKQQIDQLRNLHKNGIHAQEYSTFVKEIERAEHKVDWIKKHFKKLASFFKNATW"}}}
{"smiles": "CC(C)C[C@H](N)C(=O)Nc1ccc([N+](=O)[O-])cc1", "note": "[L-leucine p-nitroanilide]", "values": [{"measurement": "aminopeptidase assay, absorbance at 405 nm", "setting": "H11 (rH11, isoform H11)", "value": "rH11-4 and rH11-5 showing greater activity than H11 and H11-1 isoforms"}, {"measurement": "aminopeptidase assay, absorbance at 405 nm", "setting": "rH11-1", "value": "rH11-4 and rH11-5 showing greater activity than H11 and H11-1 isoforms"}, {"measurement": "aminopeptidase assay, absorbance at 405 nm", "setting": "rH11-5", "value": "rH11-4 and rH11-5 showing greater activity than H11 and H11-1 isoforms"}, {"measurement": "aminopeptidase assay, absorbance at 405 nm", "setting": "rH11-4", "value": "rH11-4 and rH11-5 showing greater activity than H11 and H11-1 isoforms"}]}
